The nature of the test: Selectivity ratio of Kd for full length Mycobacterium tuberculosis tRNA (guanine(37)-N1)-methyltransferase expressed in Escherichia coli BL21 (DE3) to Kd for Pseudomonas aeruginosa tRNA (guanine(37)-N1)-methyltransferase (Leu5 to Asp25 residues) expressed in Escherichia coli BL21 (DE3) Rosetta T1R cells.

Consider `CCCCCCCCNCc1ccc(CNC(=O)c2csc3nc[nH]c(=O)c23)cc1`, for which the Ratio is 100. For the molecule `NC1CCN(Cc2ccc(CNC(=O)c3csc4nc[nH]c(=O)c34)cc2)CC1`, the Ratio lay in the range of 100 to 300.

Values taken from ChEMBL document CHEMBL4373727, “Thienopyrimidinone Derivatives That Inhibit Bacterial tRNA (Guanine37-N1)-Methyltransferase (TrmD) by Restructuring the Active Site with a Tyrosine-Flipping Mechanism” (J Med Chem, 2019).
